For 20 compounds, IC50 results are on record in patent publication US9981975B2, “Pyrrolotriazine compounds as tam inhibitors” (Incyte Corporation, priority 2016, dated 2018).

Structures are written as SMILES. Bounds are passed on as bounds.

Assay type in all cases: biochemical
Experiment [1] addresses Tyro3 (Homo sapiens (Human), UniProt Q06418). Put plainly: TAM Enzymatic Assay (HTRF), Tyro3. The settings on record: Tyro3, 60 min, room temperature. The gist of the method:
(§1)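 HTRF kinase assay in 50 mM HEPES pH 7.5, 10 mM MgCl2, 1 mM EGTA, 0.01% NP-40, 2 mM DTT; compound in DMSO pre-dispensed, enzyme added, reaction started with substrate, 60 min at room temperature in the dark.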

Experiment [2] addresses c-Mer (Homo sapiens (Human), UniProt Q12866). Put plainly: TAM Enzymatic Assay (HTRF), Mer. The settings on record: 60 min, room temperature. The gist of the method:
as §1
In general terms: In TR-FRET formats the signal depends on donor and acceptor labels being close together.

Experiment [3] has as its target phosphor-Axl (Homo sapiens (Human), UniProt P30530). In words: TAM Enzymatic Assay (HTRF), Axl. The settings on record: recombinant autophosphorylated Axl, 60 min, room temperature.

Tyro3, sequence (Q06418 41-890): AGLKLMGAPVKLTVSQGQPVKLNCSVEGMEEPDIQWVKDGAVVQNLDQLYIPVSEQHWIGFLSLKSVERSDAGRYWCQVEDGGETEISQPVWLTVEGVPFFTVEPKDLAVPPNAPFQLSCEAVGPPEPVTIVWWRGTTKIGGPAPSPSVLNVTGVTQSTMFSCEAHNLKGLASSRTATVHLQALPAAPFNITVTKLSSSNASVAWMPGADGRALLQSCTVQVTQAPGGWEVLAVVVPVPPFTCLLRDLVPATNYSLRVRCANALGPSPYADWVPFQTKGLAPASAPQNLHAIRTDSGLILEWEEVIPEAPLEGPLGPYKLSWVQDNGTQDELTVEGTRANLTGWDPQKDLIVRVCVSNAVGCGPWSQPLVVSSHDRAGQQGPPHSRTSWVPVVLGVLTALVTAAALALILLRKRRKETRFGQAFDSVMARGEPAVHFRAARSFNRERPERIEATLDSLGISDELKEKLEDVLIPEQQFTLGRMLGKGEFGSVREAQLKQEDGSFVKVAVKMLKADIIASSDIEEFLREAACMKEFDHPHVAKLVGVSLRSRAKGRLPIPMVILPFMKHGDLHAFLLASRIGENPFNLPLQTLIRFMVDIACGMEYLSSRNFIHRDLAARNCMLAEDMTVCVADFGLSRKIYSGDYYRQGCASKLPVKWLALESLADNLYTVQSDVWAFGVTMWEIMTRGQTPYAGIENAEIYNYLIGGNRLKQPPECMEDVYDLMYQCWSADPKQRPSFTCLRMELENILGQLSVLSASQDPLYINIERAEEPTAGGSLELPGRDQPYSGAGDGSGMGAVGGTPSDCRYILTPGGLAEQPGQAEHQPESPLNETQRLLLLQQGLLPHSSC
c-Mer, sequence (Q12866 21-999): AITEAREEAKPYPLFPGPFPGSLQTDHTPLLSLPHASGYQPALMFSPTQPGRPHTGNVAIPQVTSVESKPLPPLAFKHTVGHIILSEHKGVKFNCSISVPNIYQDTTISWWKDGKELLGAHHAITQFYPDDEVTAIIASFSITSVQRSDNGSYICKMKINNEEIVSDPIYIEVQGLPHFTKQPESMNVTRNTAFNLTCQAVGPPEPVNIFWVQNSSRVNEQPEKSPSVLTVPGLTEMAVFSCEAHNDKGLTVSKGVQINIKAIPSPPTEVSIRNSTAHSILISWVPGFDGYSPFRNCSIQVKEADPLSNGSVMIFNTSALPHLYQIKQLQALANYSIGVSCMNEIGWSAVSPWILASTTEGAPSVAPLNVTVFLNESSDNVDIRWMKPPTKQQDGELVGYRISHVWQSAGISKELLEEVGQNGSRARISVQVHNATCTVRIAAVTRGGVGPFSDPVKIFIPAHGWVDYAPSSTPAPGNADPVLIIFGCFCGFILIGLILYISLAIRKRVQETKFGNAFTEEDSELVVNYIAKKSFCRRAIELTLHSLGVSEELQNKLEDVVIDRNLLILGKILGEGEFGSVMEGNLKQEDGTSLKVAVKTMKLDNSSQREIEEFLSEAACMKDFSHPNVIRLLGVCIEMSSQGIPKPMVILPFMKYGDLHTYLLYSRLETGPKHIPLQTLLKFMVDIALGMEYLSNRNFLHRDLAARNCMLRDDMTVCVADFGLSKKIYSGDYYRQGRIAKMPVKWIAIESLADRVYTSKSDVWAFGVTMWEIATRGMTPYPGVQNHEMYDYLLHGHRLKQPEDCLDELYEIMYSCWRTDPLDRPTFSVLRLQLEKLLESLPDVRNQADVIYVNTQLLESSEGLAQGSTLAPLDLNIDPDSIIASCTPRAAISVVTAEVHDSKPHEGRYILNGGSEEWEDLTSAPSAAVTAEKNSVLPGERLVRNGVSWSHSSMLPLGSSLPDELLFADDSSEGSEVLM
phosphor-Axl, sequence (P30530 26-894): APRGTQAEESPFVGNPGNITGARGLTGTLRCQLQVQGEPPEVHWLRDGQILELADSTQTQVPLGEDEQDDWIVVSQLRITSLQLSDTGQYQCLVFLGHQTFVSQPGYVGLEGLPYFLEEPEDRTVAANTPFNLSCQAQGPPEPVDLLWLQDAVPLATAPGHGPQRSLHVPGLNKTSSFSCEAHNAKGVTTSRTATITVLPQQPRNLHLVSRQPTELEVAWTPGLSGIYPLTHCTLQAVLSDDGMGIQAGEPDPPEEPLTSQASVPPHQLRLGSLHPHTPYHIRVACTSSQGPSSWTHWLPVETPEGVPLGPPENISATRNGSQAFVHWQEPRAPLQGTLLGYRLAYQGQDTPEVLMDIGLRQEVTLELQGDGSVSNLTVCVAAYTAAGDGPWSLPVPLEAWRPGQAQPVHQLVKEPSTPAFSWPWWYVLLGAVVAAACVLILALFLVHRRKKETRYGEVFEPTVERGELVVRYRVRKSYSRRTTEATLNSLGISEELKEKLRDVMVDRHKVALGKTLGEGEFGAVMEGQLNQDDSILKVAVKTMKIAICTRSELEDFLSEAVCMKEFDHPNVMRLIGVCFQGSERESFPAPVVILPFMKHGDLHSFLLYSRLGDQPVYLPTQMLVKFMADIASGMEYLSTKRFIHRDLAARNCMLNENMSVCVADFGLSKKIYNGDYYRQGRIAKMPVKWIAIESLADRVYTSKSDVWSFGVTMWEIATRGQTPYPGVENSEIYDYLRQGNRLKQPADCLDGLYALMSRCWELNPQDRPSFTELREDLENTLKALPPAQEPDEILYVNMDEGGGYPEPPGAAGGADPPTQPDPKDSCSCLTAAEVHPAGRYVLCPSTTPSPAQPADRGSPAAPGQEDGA

One may read the IC50 as the point on the concentration scale where inhibition reaches its midpoint. In the case of `CN(C)C(=O)N1CCC(c2cc(-c3ccc(NC(=O)c4cccn(-c5ccccc5)c4=O)cc3)c3c(N)ncnn23)CC1` [Example 44, N-[4-(4-Amino-7-{1-[(dimethylamino)carbonyl]piperidin-4-yl}pyrrolo[2,1-f][1,2,4]triazin-5-yl)phenyl]-2-oxo-1-phenyl-1,2-dihydropyridine-3-carboxamide], the values for the IC50 in experiment [1], in experiment [2] and in experiment [3] were more than 100 nM, not above 5 nM and not above 5 nM, respectively.
With `Cc1c(-c2cccc(C#N)c2)c(=O)c(C(=O)Nc2ccc(-c3cc(C4CCN(C(=O)C(C)C)CC4)n4ncnc(N)c34)cc2)cn1C(C)C` [Example 99, N-(4-(4-Amino-7-(1-isobutyrylpiperidin-4-yl)pyrrolo[2,1-f][1,2,4]triazin-5-yl)phenyl)-5-(3-cyanophenyl)-1-isopropyl-6-methyl-4-oxo-1,4-dihydropyridine-3-carboxamide], the values for the IC50 in experiment [1], in experiment [2] and in experiment [3] were 10 to 100 nM, not above 5 nM and not above 5 nM, respectively.
Take `Nc1ncnn2c(C3CCNCC3)cc(-c3ccc(NC(=O)c4cccn(-c5ccc(F)cc5)c4=O)cc3)c12` [Example 33, N-[4-(4-Amino-7-piperidin-4-ylpyrrolo[2,1-f][1,2,4]triazin-5-yl)phenyl]-1-(4-fluorophenyl)-2-oxo-1,2-dihydropyridine-3-carboxamide]: the figures for the IC50 in experiment [1], in experiment [2] and in experiment [3] were 10 to 100 nM, not above 5 nM and not above 5 nM, respectively.
As to `COC(=O)N1CCC(c2cc(-c3ccc(NC(=O)c4cccn(-c5ccc(F)cc5)c4=O)cc3F)c3c(N)ncnn23)CC1` [Example 39, Methyl 4-{4-amino-5-[2-fluoro-4-({[1-(4-fluorophenyl)-2-oxo-1,2-dihydropyridin-3-yl]carbonyl}amino)phenyl]pyrrolo[2,1-f][1,2,4]triazin-7-yl}piperidine-1-carboxylate], the IC50 was 10 to 100 nM in experiment [1], not above 5 nM in experiment [2] and not above 5 nM in experiment [3].
As to `Cc1c(-c2cccnc2)c(=O)c(C(=O)Nc2ccc(-c3cc(C4CCN(C(=O)C(C)C)CC4)n4ncnc(N)c34)cc2)cn1C1CC1` [Example 147, N-(4-(4-Amino-7-(1-isobutyrylpiperidin-4-yl)pyrrolo[1,2-f][1,2,4]triazin-5-yl)phenyl)-1-cyclopropyl-6-methyl-4-oxo-5-(pyridin-3-yl)-1,4-dihydropyridine-3-carboxamide], the figures for the IC50 in experiment [1], in experiment [2] and in experiment [3] were more than 100 nM, not above 5 nM and not above 5 nM, respectively.
With `CC(C)C(=O)N1CCC(c2cc(-c3ccc(NC(=O)c4cc5c(n(-c6cccnc6)c4=O)CC(C)(C)CC5=O)cc3)c3c(N)ncnn23)CC1` [Example 114, N-(4-(4-Amino-7-(1-isobutyrylpiperidin-4-yl)pyrrolo[1,2-f][1,2,4]triazin-5-yl)phenyl)-7,7-dimethyl-2,5-dioxo-1-(pyridin-3-yl)-1,2,5,6,7,8-hexahydroquinoline-3-carboxamide], the IC50 in experiment [1] is 10 to 100 nM; in experiment [2], not above 5 nM; in experiment [3], not above 5 nM.
Regarding `N#C[C@H]1CC[C@@H](c2cc(-c3ccc(NC(=O)c4cccn(-c5ccccc5)c4=O)cc3)c3c(N)ncnn32)CC1` [Example 28, N-{4-[4-Amino-7-(cis-4-cyanocyclohexyl)pyrrolo[2,1-f][1,2,4]triazin-5-yl]phenyl}-2-oxo-1-phenyl-1,2-dihydropyridine-3-carboxamide], the IC50 in experiment [1] is more than 100 nM; in experiment [2] it was not above 5 nM; in experiment [3], not above 5 nM.
Take `COCCN1CCC(c2cc(-c3ccc(NC(=O)c4cccn(-c5ccccc5)c4=O)cc3F)c3c(N)ncnn23)CC1` [Example 50, N-(4-{4-Amino-7-[1-(2-methoxyethyl)piperidin-4-yl]pyrrolo[2,1-f][1,2,4]triazin-5-yl}-3-fluorophenyl)-2-oxo-1-phenyl-1,2-dihydropyridine-3-carboxamide]: the IC50 was 10 to 100 nM in experiment [1], not above 5 nM in experiment [2] and not above 5 nM in experiment [3].
Consider `CC(C)C(=O)N1CCC(c2cc(-c3ccc(NC(=O)c4cn(C(C)C)c(=O)n(-c5ccccc5)c4=O)cc3F)c3c(N)ncnn23)CC1` [Example 75, N-(4-(4-Amino-7-(1-isobutyrylpiperidin-4-yl)pyrrolo[1,2-f][1,2,4]triazin-5-yl)-3-fluorophenyl)-1-isopropyl-2,4-dioxo-3-phenyl-1,2,3,4-tetrahydropyrimidine-5-carboxamide], for which the IC50 in experiment [1] was 10 to 100 nM; in experiment [2], not above 5 nM; in experiment [3] it was not above 5 nM.
Consider `CC(C)n1cc(C(=O)Nc2ccc(-c3cc(C4CCN(CC(=O)N(C)C)CC4)n4ncnc(N)c34)cc2)c(=O)n(-c2ccccc2)c1=O` [Example 81, N-(4-(4-Amino-7-(1-(2-(dimethylamino)-2-oxoethyl)piperidin-4-yl)pyrrolo[1,2-f][1,2,4]triazin-5-yl)phenyl)-1-isopropyl-2,4-dioxo-3-phenyl-1,2,3,4-tetrahydropyrimidine-5-carboxamide], for which the IC50 in experiment [1] was 10 to 100 nM; in experiment [2] it was not above 5 nM; in experiment [3] it was not above 5 nM.
For the compound `CCc1cc(-c2ccc(NC(=O)c3cccn([C@H](C)CO)c3=O)cc2)c2c(N)ncnn12` [Example 3, N-[4-(4-Amino-7-ethylpyrrolo[2,1-f][1,2,4]triazin-5-yl)phenyl]-1-[(1R)-2-hydroxy-1-methylethyl]-2-oxo-1,2-dihydropyridine-3-carboxamide], the IC50 in experiment [1], in experiment [2] and in experiment [3] was more than 100 nM each time.
For `CN1CCC(c2cc(-c3ccc(NC(=O)c4cccn(-c5ccc(F)cc5)c4=O)cc3F)c3c(N)ncnn23)CC1` [Example 23, N-{4-[4-Amino-7-(1-methylpiperidin-4-yl)pyrrolo[2,1-f][1,2,4]triazin-5-yl]-3-fluorophenyl}-1-(4-fluorophenyl)-2-oxo-1,2-dihydropyridine-3-carboxamide], the IC50 in experiment [1] was 10 to 100 nM; in experiment [2], not above 5 nM; in experiment [3], not above 5 nM.
For the compound `N#C[C@H]1CC[C@@H](c2cc(-c3ccc(NC(=O)c4cccn(-c5ccccc5)c4=O)cc3F)c3c(N)ncnn32)CC1` [Example 30, N-{4-[4-Amino-7-(cis-4-cyanocyclohexyl)pyrrolo[2,1-f][1,2,4]triazin-5-yl]-3-fluorophenyl}-2-oxo-1-phenyl-1,2-dihydropyridine-3-carboxamide], the IC50 in experiment [1] is 10 to 100 nM; in experiment [2], not above 5 nM; in experiment [3], not above 5 nM.
On to `CC(=O)N1CCC(c2cc(-c3ccc(NC(=O)c4cccn(-c5ccccc5)c4=O)cc3F)c3c(N)ncnn23)CC1` [Example 26, N-{4-[7-(1-Acetylpiperidin-4-yl)-4-aminopyrrolo[2,1-f][1,2,4]triazin-5-yl]-3-fluorophenyl}-2-oxo-1-phenyl-1,2-dihydropyridine-3-carboxamide], for which the 50% inhibitory concentration (IC50) in experiment [1] is 10 to 100 nM; in experiment [2] it was not above 5 nM; in experiment [3], not above 5 nM.
Consider `CN(C)C(=O)N1CCC(c2cc(-c3ccc(NC(=O)c4cccn(-c5ccc(F)cc5)c4=O)cc3)c3c(N)ncnn23)CC1` [Example 45, N-[4-(4-Amino-7-{1-[(dimethylamino)carbonyl]piperidin-4-yl}pyrrolo[2,1-f][1,2,4]triazin-5-yl)phenyl]-1-(4-fluorophenyl)-2-oxo-1,2-dihydropyridine-3-carboxamide], for which the IC50 in experiment [1] is 10 to 100 nM; in experiment [2] it was not above 5 nM; in experiment [3] it was not above 5 nM.
For the compound `Cc1cc(C(=O)Nc2ccc(-c3cc(C4CCN(C(=O)C(C)C)CC4)n4ncnc(N)c34)cc2)c(=O)n(-c2cncc(F)c2)c1C` [Example 121, N-(4-(4-Amino-7-(1-isobutyrylpiperidin-4-yl)pyrrolo[2,1-f][1,2,4]triazin-5-yl)phenyl)-5′-fluoro-5,6-dimethyl-2-oxo-2H-[1,3′-bipyridine]-3-carboxamide], the IC50 is more than 100 nM in experiment [1], not above 5 nM in experiment [2] and not above 5 nM in experiment [3].
Take `Cc1cc(C(=O)Nc2ccc(-c3cc(C4CCN(C(=O)C(C)C)CC4)n4ncnc(N)c34)cc2)c(=O)n(-c2ccccc2)c1-c1cccnc1` [Example 106, N-(4-(4-Amino-7-(1-isobutyrylpiperidin-4-yl)pyrrolo[2,1-f][1,2,4]triazin-5-yl)phenyl)-3-methyl-6-oxo-1-phenyl-1,6-dihydro-[2,3′-bipyridine]-5-carboxamide]: the IC50 in experiment [1] was more than 100 nM; in experiment [2], not above 5 nM; in experiment [3], not above 5 nM.
For the compound `Cc1c(Cl)cc(C(=O)Nc2ccc(-c3cc(C4CCN(C(=O)C(C)C)CC4)n4ncnc(N)c34)cc2)c(=O)n1-c1cccnc1` [Example 131, N-(4-(4-amino-7-(1-isobutyrylpiperidin-4-yl)pyrrolo[2,1-f][1,2,4]triazin-5-yl)phenyl)-5-chloro-6-methyl-2-oxo-2H-[1,3′-bipyridine]-3-carboxamide], the IC50 in experiment [1] is more than 100 nM; in experiment [2], not above 5 nM; in experiment [3] it was not above 5 nM.
As to `N#C[C@H]1CC[C@@H](c2cc(-c3ccc(NC(=O)c4cccn(-c5ccc(F)cc5)c4=O)cc3)c3c(N)ncnn32)CC1` [Example 29, N-{4-[4-Amino-7-(cis-4-cyanocyclohexyl)pyrrolo[2,1-f][1,2,4]triazin-5-yl]phenyl}-1-(4-fluorophenyl)-2-oxo-1,2-dihydropyridine-3-carboxamide], the results for the IC50 in experiment [1], in experiment [2] and in experiment [3] were 10 to 100 nM, not above 5 nM and not above 5 nM, respectively.
As to `Cc1c(-c2ccccn2)c(=O)c(C(=O)Nc2ccc(-c3cc(C4CCN(C(=O)C(C)C)CC4)n4ncnc(N)c34)cc2)cn1C1CC1` [Example 141, N-(4-(4-Amino-7-(1-isobutyrylpiperidin-4-yl)pyrrolo[2,1-f][1,2,4]triazin-5-yl)phenyl)-1′-cyclopropyl-2′-methyl-4′-oxo-1′,4′-dihydro-[2,3′-bipyridine]-5′-carboxamide], the IC50 in experiment [1] was more than 100 nM; in experiment [2], not above 5 nM; in experiment [3], not above 5 nM.
